From patent US20080312330A1, “Methods for Reducing Mortality and Morbidity by Postoperative Administration of a Pharmacologic Cardiovascular Agent” (priority 1996, published 2008)
Where “and” joins values, the source holds several entries; their conditions need not be identical. Equal entries are not always repeated.

Assays:
[1] = system: patients with, or at risk for coronary artery disease and scheduled for elective noncardiac surgery; assay: Randomized, blinded, placebo-controlled trial: mortality and cardiovascular outcomes over two years following noncardiac surgery; type: in vivo
Text: Eligible patients included those with, or at risk for coronary artery disease and scheduled for elective noncardiac surgery requiring general anesthesia at the San Francisco Veterans Affairs Medical Center. The specific inclusion and exclusion criteria have been described previously (Mangano et al., 1990, N. Eng. J. Med. 323:1781-1788; Mangano et al., 1992, JAMA 268:233-239).
(§1) Patients were randomized to receive either atenolol “TENORMIN” (Zeneca Pharmaceuticals) or placebo prior to induction of anesthesia, immediately following surgery, and daily throughout their hospitalization (up to 7 days). Drug assignment, study physicians, treating clinicians, and data analysis personnel were blinded to study group throughout all phases of this trial.
(§2) Intravenous preparation consisted of two-10-ml syringes, each containing 5 mg atenolol or placebo; oral preparation consisted of two 50 mg tablets of atenolol, or two placebo tablets. Approximately one hour prior to surgery, patients entered the preoperative area and blood pressure was recorded with an automated cuff and 5-lead continuous electrocardiograph. Thirty-minutes prior to entry into the operating room, intravenous administration of study drug began. Exclusion criteria for study drug administration were heart rate <55 bpm, systolic blood pressure <100 mm Hg, or evidence of congestive heart failure, third degree heart block, or bronchospasm (ISIS-I protocol, 1986, Lancet 2:56-66). […] Immediately following surgery, the study drug was again given using the identical technique applied prior to surgery. On the morning of the first postoperative day, and daily thereafter until the patient was discharged from the hospital (up to a maximum of seven days), patients received study drug every 12 hours using the same technique for intravenous infusion, or orally (if able) at which time a tablet of atenolol (0, 50 or 100 mg) or placebo was given daily. If heart rate was >65 bpm and systolic blood pressure >100 mm Hg, 100 mg atenolol (or placebo) was given orally; if heart rate was >55 but <65 bpm and systolic blood pressure >100 mm Hg, 50 mg atenolol (or placebo) was administered; if heart rate was <55 bpm or systolic blood pressure <100 mm Hg, 0 mg atenolol (or placebo) was given. No treating clinician was allowed to observe study drug administration either prior to, or after, surgery.
(§3) All patients received general anesthesia with endotracheal intubation; preoperative medications were continued until the time of surgery, with beta-blockers replaced by study drug on the morning of surgery. There were no other protocol-based restrictions of anesthetic or surgical technique, and clinical decisions were not controlled by study protocol. Perioperative information was recorded and analyzed for possible confounding effects, and included: type and duration of surgery, anesthetic techniques, fluid and blood loss and replacement, cardiovascular medications, hemodynamics, electrocardiographic data, and adverse events.
At six months, one year and two years following surgery, study physicians conducted scheduled research study visits that were independent of usual clinical care.

[2] = system: patients with, or at risk for coronary artery disease and scheduled for elective noncardiac surgery; assay: Same trial: in-hospital tolerance, hemodynamics and in-hospital deaths during study drug administration
Description: as §1, §2, §3
At six months, one year and two years following surgery, study physicians conducted scheduled research study visits that were independent of usual clinical care. Data collected during each visit included history and physical examination, a 12-lead electrocardiogram, and review of all medical records, medications and hospital admissions. Cardiac death was diagnosed if the patient died of either a myocardial infarction, dysrhythmia or congestive heart failure caused primarily by a cardiac condition.

[3] = long-term deaths, one line per patient of the atenolol group

Question: Which results are given for CC(C)NCC(O)COc1ccc(CC(N)=O)cc1 (stereo not drawn) [atenolol]?
Answer: HAZARDS RATIO, two-year mortality, multivariate models ([1]; Cox multivariate, 30 deaths among 200 patients): 0.5; HAZARDS RATIO, two-year mortality, univariable models ([1]; Cox univariable, 30 deaths among 200 patients): 0.4; hazard ratio, survival in diabetics at two years ([1]; diabetics, two years, P=0.03): 0.25; improvement of survival in diabetics at two years ([1]; diabetics, two years, P=0.03): approximately 75%; deaths over the first 6-8 months ([1]; first 6-8 months, noncardiac, placebo 10 deaths with 7 cardiac-related, P<0.001): one; CAUSE OF DEATH [1, 3]: Respiratory failure and Ventricular tachycardia and Severe CAD, sepsis and Sepsis, ALS and Metastatic renal CA and CHF post CABG and ARDS and Cardiac arrest, lung CA and Metastatic squamous cell CA, larynx, lung; TIME TO DEATH [1, 3]: 237 days and 295 days and 327 days and 385 days and 416 days and 481 days and 529 days and 582 days and 656 days; decrease in the rate of cardiac events within one year ([1]; one year, versus placebo): 3 fold; cardiac events within one year following surgery ([1]; one year, placebo 22 patients, P=0.003): 7 patients; time-to-first adverse event ([1]; placebo group 6 days): 158 days; time to first death ([1]; placebo group 19 days): 237 days; cardiac events within six months following surgery ([1]; six months, placebo 12 patients, P<0.001): 0 patients; cardiovascular event-free survival of patients (FIG. 2) ([1]; two years after surgery): increases cardiovascular event-free survival of patients for two years after surgery; survival of patients (FIG. 1) ([1]; two years after surgery): increases the survival of patients for two years after surgery; decrease in the rate of cardiac events within two years ([1]; two years, versus placebo): 2 fold; reduction in all-cause mortality ([1]; two years, versus placebo, P=0.019): 57%; reduction in cardiac mortality ([1]; two years, versus placebo, P=0.033): 67%; cardiac-related deaths over the two-year outcome period ([1]; two years, placebo 12 cardiac): 4 deaths; deaths (all-cause) over the two-year outcome period ([1]; two years, placebo 21 deaths, P=0.019): 9 deaths; cardiac events within two years following surgery ([1]; two years, placebo 32 patients, P=0.008): 16 patients; noncardiac deaths secondary to metastatic cancer during hospitalization ([2]; during hospitalization): two; noncardiac deaths with pulmonary failure secondary to massive infusion for fluid loss during hospitalization ([2]; during hospitalization): one; cardiac deaths secondary to myocardial infarction during hospitalization ([2]; during hospitalization, placebo two): one; average heart rate during treatment ([2]; during treatment, placebo 87 bpm, P<0.001): 75 bpm; maximum heart rate during treatment ([2]; during treatment, placebo 130 bpm, P<0.001): 113 bpm; patients tolerating the full dose ([2]; human, in vivo): more than 60%; patients who tolerated administration ([2]; human, in vivo): More than 85%; patients with 20% or more decrease in systolic blood pressure or heart rate ([2]; human, in vivo, iv): approximately 10%; patients who developed systolic blood pressure <90 mm Hg or heart rate <40 bpm, or required therapy ([2]; in vivo, iv): no patient; incidence of hypotension or bradycardia, or other events ([2]; in vivo, po): not associated with an increased incidence
